The text below walks through data of ChEMBL document CHEMBL1135401, “Pharmacophore mapping of a series of 2,4-diamino-5-deazapteridine inhibitors of Mycobacterium avium complex dihydrofolate reductase” (J Med Chem, 2002).

A word on the IC50: it is the concentration that inhibits the measured activity by half. Read a high IC50 as weaker potency in that assay.

The target in experiment [1] is T1, Dihydrofolate reductase (Homo sapiens, UniProt P00374).
T1 sequence (P00374 whole entry): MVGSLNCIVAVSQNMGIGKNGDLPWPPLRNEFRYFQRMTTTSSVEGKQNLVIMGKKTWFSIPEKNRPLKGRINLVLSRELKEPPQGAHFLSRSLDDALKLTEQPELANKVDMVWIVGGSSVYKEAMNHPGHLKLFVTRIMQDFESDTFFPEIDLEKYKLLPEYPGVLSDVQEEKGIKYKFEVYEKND
Kind of experiment: Antimycobacterial activity against human dihydrofolate reductase (hDHFR).

The target in experiment [2] is T2, Dihydrofolate reductase (Mycobacterium avium, UniProt O30463).
T2 sequence (O30463 whole entry): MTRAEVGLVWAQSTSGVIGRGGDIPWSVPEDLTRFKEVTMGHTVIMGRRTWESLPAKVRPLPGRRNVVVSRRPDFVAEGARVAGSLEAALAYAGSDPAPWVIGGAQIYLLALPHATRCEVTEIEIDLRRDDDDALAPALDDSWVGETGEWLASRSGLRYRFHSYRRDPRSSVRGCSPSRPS
Kind of experiment: Antimycobacterial activity against Mycobacterium avium complex dihydrofolate reductase (MAC DHFR).

For experiment [3], the target named is T2, Dihydrofolate reductase. Description: Antimycobacterial activity scale was evaluated and found to be highly active against MAC Dihydrofolate reductase.
Experiment [4] concerns the target T1, Dihydrofolate reductase. Description: Antimycobacterial activity against Human dihydrofolatereductase (hDHFR).
Experiment [5] concerns the target T1, Dihydrofolate reductase.

For `CCc1c(CNc2cc(C(F)(F)F)ccc2OC)cnc2nc(N)nc(N)c12`, the IC50 against Dihydrofolate reductase [1] came out at 3.6 nM; on Dihydrofolate reductase [2], 0.88 nM.

In the case of `Cc1c(CNc2ccc3c4c(cccc24)-c2ccccc2-3)cnc2nc(N)nc(N)c12`, the IC50 against Dihydrofolate reductase [1] is 6.2 nM; at Dihydrofolate reductase [2], 1 nM.

Take `CCCOc1ccc(NCc2cnc3nc(N)nc(N)c3c2C)cc1OC`: the IC50 is below 10 nM at Dihydrofolate reductase [3], 15 nM at Dihydrofolate reductase [1] and 0.93 nM on Dihydrofolate reductase [2].

Turning to `COc1cc(NCc2cnc3nc(N)nc(N)c3c2C)cc(OC)c1`, the half-inhibitory concentration (IC50) on Dihydrofolate reductase [4] came to 15 nM; on Dihydrofolate reductase [2] it was 20 nM.

For `Cc1c(CSc2cccc3ccccc23)cnc2nc(N)nc(N)c12`, the IC50 against Dihydrofolate reductase [1] is 440 nM; at Dihydrofolate reductase [2], 4.6 nM.

Turning to `Cc1c(CNc2cccc3ccccc23)cnc2nc(N)nc(N)c12`, the IC50 against Dihydrofolate reductase [1] is 4.3 nM; against Dihydrofolate reductase [5], below 100 nM; against Dihydrofolate reductase [2], 0.81 nM.
